From patent US9163015B2, “Pyrazolopyridine, pyrarolopyrazine, pyrazolopyrimidine, pyrazolothiophene and pyrazolothiazole compounds as MGLUR4 allosteric potentiators, compositions, and methods of treating neurological dysfunction” (Vanderbilt University, priority 2010, dated 2015)
pEC50: −log10 of the molar value.

Molecular target: human mGluR4 (Homo sapiens (Human), UniProt Q14833)
Test: mGluR4 potentiation assay, CHO cells transfected with human mGluR4, Ca2+-sensitive fluorescent dye, EC20 agonist
Format: cell-based
Settings: potentiation of mGluR4; table does not state human or rat receptor
Method: The disclosed compounds and compositions can be evaluated for their ability to act as a potentiator of metabotropic glutamate receptor activity, in particular mGluR4 activity, by any suitable known methodology known in the art. For example, Chinese Hamster Ovary (CHO) cells transfected with human mGluR4 or HEK cells co-transfected with rat mGluR4 and the G-protein regulated Inwardly Rectifying Potassium channel (GIRK) were plated in clear bottom assay plates for assay in a Hamamatsu FDSS Fluorometric Plate Reader. The cells were loaded with either a Ca2+-sensitive fluorescent dye or the thallium responsive dye and the plates were washed and placed into a suitable kinetic plate reader. For human mGluR4 assays, a fluorescence baseline was established for 3-5 seconds, the disclosed compounds were then added to the cells, and the response in cells was measured. Approximately two and a half minutes later, a concentration of mGluR4 orthosteric agonist (e.g. glutamate or L-AP4) eliciting approximately 20% (EC20) of the maximal agonist response was added to the cells, and the response was measured. Two minutes later, a concentration of mGluR4 agonist (e.g. glutamate or L-AP4) eliciting 80% (EC80) of the maximal agonist response was added to the cells, and the response was measured. For rat mGluR4/GIRK experiments, a baseline was established for approximately five seconds, disclosed compounds were added, and either an EC20 or EC80 concentration of agonist was added approximately two and one half minutes later.
The above described assay operated in two modes. In the first mode, a range of concentrations of the disclosed compounds are added to cells, followed by a single fixed concentration of agonist. If the compound acts as a potentiatior, an EC50 value for potentiation and a maximum extent of potentiation by the compound at this concentration of agonist is determined by non-linear curve fitting. If the compound acts as a noncompetitive antagonist, an IC50 value is determined by non-linear curve fitting. In the second mode, several fixed concentrations of the disclosed compounds are added to various wells on a plate, followed by a range in concentrations of agonist for each concentration of disclosed compound. The EC50 values for the agonist at each concentration of compound are determined by non-linear curve fitting. A decrease in the EC50 value of the agonist with increasing concentrations of the sample compound (a leftward shift of the agonist concentration-response curve) is an indication of the degree of mGluR4 potentiation at a given concentration of the sample compound. A decrease in the maximal response of the agonist with increasing concentrations of the sample compounds, with or without a rightward shift in agonist potency, is an indication of the degree of noncompetitive antagonism at mGluR4. The second mode also indicates whether the sample compounds also affect the maximum response to mGluR4 to agonists.

Sequence of human mGluR4 (Q14833 33-912): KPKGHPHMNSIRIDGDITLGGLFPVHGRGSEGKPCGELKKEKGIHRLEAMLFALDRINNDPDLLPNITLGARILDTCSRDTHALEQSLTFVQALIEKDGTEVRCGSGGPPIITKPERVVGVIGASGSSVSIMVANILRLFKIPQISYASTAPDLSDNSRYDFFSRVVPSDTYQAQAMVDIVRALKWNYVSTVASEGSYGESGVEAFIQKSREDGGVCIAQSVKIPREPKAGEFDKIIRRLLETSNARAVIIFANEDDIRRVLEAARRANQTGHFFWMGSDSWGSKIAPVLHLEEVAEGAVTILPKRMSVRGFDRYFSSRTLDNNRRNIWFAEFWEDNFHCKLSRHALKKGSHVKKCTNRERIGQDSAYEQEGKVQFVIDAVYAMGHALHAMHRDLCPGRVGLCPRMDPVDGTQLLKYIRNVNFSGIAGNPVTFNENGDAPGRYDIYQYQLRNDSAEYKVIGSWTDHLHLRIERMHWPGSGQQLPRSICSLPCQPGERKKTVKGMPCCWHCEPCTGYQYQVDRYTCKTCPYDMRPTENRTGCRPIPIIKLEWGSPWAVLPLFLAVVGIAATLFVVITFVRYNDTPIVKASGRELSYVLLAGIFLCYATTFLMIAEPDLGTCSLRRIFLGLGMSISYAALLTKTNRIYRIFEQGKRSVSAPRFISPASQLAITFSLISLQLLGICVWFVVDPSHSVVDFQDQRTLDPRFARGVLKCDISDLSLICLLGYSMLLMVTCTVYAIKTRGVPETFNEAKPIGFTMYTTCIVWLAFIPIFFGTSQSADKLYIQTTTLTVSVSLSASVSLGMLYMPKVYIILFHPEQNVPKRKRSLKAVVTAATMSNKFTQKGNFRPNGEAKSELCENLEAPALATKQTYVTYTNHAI

Row | pEC50 | Compound
1 | 6.51 | Fc1ccc2[nH]nc(Nc3ccc(F)c(Cl)c3)c2n1 [Example 95, N-(3-chloro-4-fluorophenyl)-5-fluoro-1H-pyrazolo[4,3-b]pyridin-3-amine]
2 | 5.47 | Clc1cc(Nc2n[nH]c3cccnc23)cnc1Oc1ccccn1 [Example 96, N-(5-chloro-6-(pyridin-2-yloxy)pyridin-3-yl)-1H-pyrazolo[4,3-b]pyridin-3-amine]
